Reference: ChEMBL document CHEMBL5247652, “Discovery of Novel Substrate-Competitive Lysine Methyltransferase G9a Inhibitors as Anticancer Agents” (J Med Chem, 2023)
In brackets after ≈: the same amount, converted by molar mass. Activity calls are given as the source filed them. The rule behind the calls is not given here.

Tests used:
MOLT-4 [1] = assay: Antiproliferative activity against human MOLT-4 cells assessed as inhibition of cell growth with replenishment of medium with compound on day 4 and 7 by ATPlite assay; type: functional
[2] = target: T1, Histone-lysine N-methyltransferase EHMT2 (Homo sapiens, UniProt Q96KQ7); assay: Inhibition of N-terminal GST-tagged human recombinant G9a (785 to 1210 residues) expressed in baculovirus infected Sf9 cells incubated for 1 hr by AlphaLISA analysis
T1 sequence (Q96KQ7 whole entry): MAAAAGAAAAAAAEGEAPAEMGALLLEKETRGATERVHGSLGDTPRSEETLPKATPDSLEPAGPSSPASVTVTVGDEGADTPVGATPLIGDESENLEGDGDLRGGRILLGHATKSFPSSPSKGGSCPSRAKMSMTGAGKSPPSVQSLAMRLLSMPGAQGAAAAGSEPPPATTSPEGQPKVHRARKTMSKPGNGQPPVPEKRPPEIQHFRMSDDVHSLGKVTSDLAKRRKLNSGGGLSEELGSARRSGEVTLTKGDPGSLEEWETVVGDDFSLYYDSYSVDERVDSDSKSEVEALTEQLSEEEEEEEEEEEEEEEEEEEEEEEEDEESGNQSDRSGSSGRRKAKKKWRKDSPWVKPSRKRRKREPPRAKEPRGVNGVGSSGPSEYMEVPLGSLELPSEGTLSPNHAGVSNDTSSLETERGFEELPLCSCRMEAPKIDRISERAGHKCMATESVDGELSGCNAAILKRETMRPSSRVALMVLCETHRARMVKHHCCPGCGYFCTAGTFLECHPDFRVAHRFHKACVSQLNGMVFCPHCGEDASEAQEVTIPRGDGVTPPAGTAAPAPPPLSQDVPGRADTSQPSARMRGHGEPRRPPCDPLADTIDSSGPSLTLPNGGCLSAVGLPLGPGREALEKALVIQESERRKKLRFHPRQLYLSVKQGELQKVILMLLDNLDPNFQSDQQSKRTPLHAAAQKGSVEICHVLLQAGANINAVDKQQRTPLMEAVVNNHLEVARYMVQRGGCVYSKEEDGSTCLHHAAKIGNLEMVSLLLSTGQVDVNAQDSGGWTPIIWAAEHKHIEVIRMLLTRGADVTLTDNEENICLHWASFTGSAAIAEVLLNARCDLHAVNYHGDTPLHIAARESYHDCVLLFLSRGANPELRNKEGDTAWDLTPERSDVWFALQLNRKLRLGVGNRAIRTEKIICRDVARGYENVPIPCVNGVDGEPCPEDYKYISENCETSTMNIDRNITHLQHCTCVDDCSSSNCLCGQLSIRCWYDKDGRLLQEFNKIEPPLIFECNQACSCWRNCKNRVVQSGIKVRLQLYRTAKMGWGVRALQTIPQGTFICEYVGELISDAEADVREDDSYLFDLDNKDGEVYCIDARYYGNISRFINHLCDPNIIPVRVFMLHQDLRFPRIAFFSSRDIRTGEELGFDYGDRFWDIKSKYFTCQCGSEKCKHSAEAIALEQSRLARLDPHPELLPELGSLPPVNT

[3] = Aqueous solubility of compound at pH 7.4 measured for 1 hr by UV-plate reader analysis; type: physicochemical; conditions: buffer
[4] = Microsomal stability in mouse liver microsomes assessed as parent compound remaining after 30 mins in presence of NADPH by LC -MS/MS analysis; type: ADME, Microsome; conditions: read-out: Stability
[5] = Microsomal stability in human liver microsomes assessed as parent compound remaining after 30 mins in presence of NADPH by LC -MS/MS analysis; type: ADME, Microsome; conditions: read-out: Stability
MOLT-4 [6] = assay: Antiproliferative activity against human MOLT-4 cells assessed as inhibition of cell growth with replenishment of medium with compound on day 4 and 7 and measured after 12 days by ATPlite assay; type: functional; conditions: MOLT-4, 288 h, time 12 day
[7] = Permeability of compound by PAMPA assay; type: ADME; conditions: for Papp: read-out: permeability
MOLT-4 [8] = assay: Downregulation of H3K9 dimethylation in human MOLT-4 cells at 0.1 uM by Western blot analysis; type: functional, cell-based
MOLT-4 [9] = assay: Downregulation of H3K9 dimethylation in human MOLT-4 cells at 1 uM by Western blot analysis; type: functional, cell-based
[10] = Cmax in ICR mouse at 25 mg/kg, ip; type: ADME, organism-based; set-up: dose 25 mg/kg, route ip; conditions: in vivo
[11] = AUC (0 to infinity) in ICR mouse at 25 mg/kg, ip; type: ADME, organism-based; set-up: dose 25 mg/kg, route ip; conditions: in vivo
[12] = Tmax in ICR mouse at 25 mg/kg, ip; type: ADME, organism-based; conditions: in vivo
[13] = Half life in ICR mouse at 25 mg/kg, ip; type: ADME, organism-based; conditions: in vivo
[14] = target: T1, Histone-lysine N-methyltransferase EHMT2; assay: Inhibition of G9a (unknown origin)
[15] = target: T2, Histone-lysine N-methyltransferase EHMT1 (Homo sapiens, UniProt Q9H9B1); assay: Inhibition of GLP (unknown origin)
T2 sequence (Q9H9B1 whole entry): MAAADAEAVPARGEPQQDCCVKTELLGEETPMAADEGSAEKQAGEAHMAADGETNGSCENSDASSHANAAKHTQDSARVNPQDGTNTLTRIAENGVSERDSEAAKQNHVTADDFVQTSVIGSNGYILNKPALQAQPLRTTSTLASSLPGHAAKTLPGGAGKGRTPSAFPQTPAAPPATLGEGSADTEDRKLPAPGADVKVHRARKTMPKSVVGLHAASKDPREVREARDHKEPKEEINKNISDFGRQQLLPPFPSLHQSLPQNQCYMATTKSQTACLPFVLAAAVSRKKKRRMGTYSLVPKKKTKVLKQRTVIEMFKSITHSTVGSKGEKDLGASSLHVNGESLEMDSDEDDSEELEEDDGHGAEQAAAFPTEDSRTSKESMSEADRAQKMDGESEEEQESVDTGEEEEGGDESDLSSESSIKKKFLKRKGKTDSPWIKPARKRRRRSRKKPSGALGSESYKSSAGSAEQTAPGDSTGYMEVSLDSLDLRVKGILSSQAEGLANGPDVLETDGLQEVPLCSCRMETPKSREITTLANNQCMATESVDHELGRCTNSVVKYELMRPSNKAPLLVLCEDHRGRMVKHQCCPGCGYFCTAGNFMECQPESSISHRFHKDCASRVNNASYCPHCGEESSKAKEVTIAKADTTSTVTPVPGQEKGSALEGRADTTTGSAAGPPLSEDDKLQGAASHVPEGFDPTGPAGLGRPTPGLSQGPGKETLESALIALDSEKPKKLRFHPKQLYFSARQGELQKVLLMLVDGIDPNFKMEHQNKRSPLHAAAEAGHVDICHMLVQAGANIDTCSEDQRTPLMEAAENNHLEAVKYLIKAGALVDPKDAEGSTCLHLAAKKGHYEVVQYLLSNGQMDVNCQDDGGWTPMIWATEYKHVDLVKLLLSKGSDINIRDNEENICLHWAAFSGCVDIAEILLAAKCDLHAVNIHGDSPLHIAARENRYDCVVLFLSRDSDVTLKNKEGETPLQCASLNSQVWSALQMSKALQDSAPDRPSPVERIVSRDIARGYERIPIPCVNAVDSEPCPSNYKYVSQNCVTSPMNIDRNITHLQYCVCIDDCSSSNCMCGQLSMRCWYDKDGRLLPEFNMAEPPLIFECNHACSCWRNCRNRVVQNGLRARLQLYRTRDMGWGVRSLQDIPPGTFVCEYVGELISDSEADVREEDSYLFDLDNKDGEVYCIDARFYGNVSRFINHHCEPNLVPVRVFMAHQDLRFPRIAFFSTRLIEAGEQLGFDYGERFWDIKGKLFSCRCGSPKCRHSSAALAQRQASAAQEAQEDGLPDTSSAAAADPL

Compound | GI50 (MOLT-4 [1]) [nM] | IC50 [2] [nM] | solubility at 1 h [3] [µM] | remaining at 0.5 h [4] [%] | remaining at 0.5 h [5] [%] | GI50 (MOLT-4 [6]) [nM] | Papp [7] [×10⁻⁶ cm/s] | other results
Cc1c(C(=O)NC(CCC2CC2)C(=O)Nc2ccccc2)[nH]c2c1C(=O)CC(C)(C)C2 (racemic) | – | – | – | – | – | 1790 | – | –
COc1cc2c(NC3CCN(C(C)C)CC3)nc(C3CCCCC3)nc2cc1OCCCN1CCCC1 | 188 | – | > 200 | 67 | 89.7 | 188 | – | permeability [7]: 1.89 10^-6 cm/s
Cc1c(C(=O)NC(CCC2CC2)C(=O)Nc2ccc(C#N)cc2)[nH]c2c1C(=O)CC(C)(C)C2 (racemic) | – | 66.7 | – | – | – | 278 | – | –
CCCCC(NC(=O)c1[nH]c2c(c1C)C(=O)CC(C)(C)C2)C(=O)Nc1ccccn1 (racemic) | – | 4260 | 62.1 (≈ 25.5 µg/mL) | 25.1 | 68.8 | – | 11.2 | –
CCCCC(NC(=O)c1[nH]c2c(c1C)C(=O)CC(C)(C)C2)C(=O)Nc1cccnc1 (racemic) | – | 1810 | 143 (≈ 58.7 µg/mL) | 44.7 | 32.4 | – | 6.95 | –
Cc1c(C(=O)N[C@H](CCC2CC2)C(=O)Nc2ccccc2)[nH]c2c1C(=O)CC(C)(C)C2 | – | 2100 | – | – | – | 1790 | – | Activity (MOLT-4 [9]): inactive; Cmax [10]: 4.14 µM; AUC(0-inf) [11]: 10.3 µM·h; Tmax [12]: 4 h; half-life [13]: 0.58 h
CCCCC(NC(=O)c1[nH]c2c(c1C)C(=O)CC(C)(C)C2)C(=O)Nc1ccc(F)cc1 (racemic) | – | 909 | 16.5 (≈ 7.05 µg/mL) | 37.5 | 83.8 | – | 23.5 | –
CCCCNC(=O)C(CCCC)NC(=O)c1[nH]c2c(c1C)C(=O)CC(C)(C)C2 (racemic) | – | 1090 | 11 (≈ 4.28 µg/mL) | 0.8 | 30.6 | – | 8.73 | –
COc1cc2c(cc1C1=CCN(C)CCC1)N=C(N)C21CCC1 | – | – | – | – | – | – | – | IC50 [14]: 12.6 nM; IC50 [15]: 75.7 nM
CCCCC(NC(=O)c1[nH]c2c(c1C)C(=O)CC(C)(C)C2)C(=O)Nc1ccncc1 (racemic) | – | 1140 | 133 (≈ 54.6 µg/mL) | 59.4 | 15.7 | – | 3.63 | –

Further lines, with some results ahead:

GI50 (MOLT-4 [1]) [nM] | IC50 [2] [nM] | solubility at 1 h [3] [µM] | remaining at 0.5 h [4] [%] | remaining at 0.5 h [5] [%] | GI50 (MOLT-4 [6]) [nM] | Papp [7] [×10⁻⁶ cm/s] | Compound | other results
91.3 | 55 | 3.7 (≈ 1.76 µg/mL) | 70.8 | 1.8 | – | – | CC(C)c1c(C(=O)N[C@@H](CCC2CC2)C(=O)Nc2ccc(C#N)cc2)[nH]c2c1C(=O)CC(C)(C)C2 | –
21.3 | 27 | 13.6 (≈ 6.07 µg/mL) | 19.3 | 55.5 | 21.3 | 3.12 | Cc1c(C(=O)N[C@@H](CCC2CC2)C(=O)Nc2ccc(C#N)cc2)[nH]c2c1C(=O)CC(C)(C)C2 | IC50 ([2]; sf9): 27 nM; Activity (MOLT-4 [8]): Active
220 | 50 | 4 (≈ 1.84 µg/mL) | 40.5 | 51.9 | – | – | CCc1c(C(=O)N[C@@H](CCC2CC2)C(=O)Nc2ccc(C#N)cc2)[nH]c2c1C(=O)CC(C)(C)C2 | –
61.5 | 39.6 | 32.4 (≈ 13.7 µg/mL) | 7.1 | 36.5 | – | 6.35 | Cc1c(C(=O)N[C@@H](CCC2CC2)C(=O)Nc2ccccc2)[nH]c2c1C(=O)CC(C)(C)C2 | Activity (MOLT-4 [8]): Active
176 | 50 | 50.8 (≈ 22.2 µg/mL) | 38.1 | 40.2 | – | 9.64 | Cc1ccc(NC(=O)[C@@H](CCC2CC2)NC(=O)c2[nH]c3c(c2C)C(=O)CC(C)(C)C3)cn1 | –
